Numbered stars: 1 amine (or outer) side, 2 acyl side, 3 side chain; on linkers, the order of the positions; unused ones are H or OH. Square brackets hold non-standard residues; d marks the D form. Side chains are listed from the residue outwards. Peptide text beside a SMILES is read from it. * marks the point of attachment. Phe(4-CH2SO3H) = N[C@@H](Cc1ccc(CS(=O)(=O)O)cc1)C(=O)O; Phenylacetyl(4-OSO3H) = O=C(Cc1ccc(OS(=O)(=O)O)cc1)*; sY = N[C@@H](Cc1ccc(OS(=O)(=O)O)cc1)C(=O)O; C18 diacid = O=C(O)CCCCCCCCCCCCCCCCC(=O)*; C16 diacid = O=C(O)CCCCCCCCCCCCCCC(=O)*; γGlu = O=C(O)[C@H](CCC(=O)[*:2])N[*:1]; 1Nal = N[C@@H](Cc1cccc2ccccc12)C(=O)O; NMeF = CN[C@@H](Cc1ccccc1)C(=O)O; NMeD = CN[C@@H](CC(=O)O)C(=O)O; dNMeD = CN[C@H](CC(=O)O)C(=O)O; NH(2-Me-phenyl) = Cc1ccccc1N*; Nle = CCCC[C@H](N)C(=O)O; X1 = O=C(Cc1ccc(O)cc1)*; AEEA = NCCOCCOCC(=O)O; CO = O=C([*:1])[*:2]; βAla = NCCC(=O)O
Columns and labels:
[1] = target: T1, Cholecystokinin receptor type A (Homo sapiens, UniProt P32238); experiment: Displacement of [125I]-CCK-8 from human CCK1R expressed in human 1321N1 cell membranes after 2 hrs by SPA assay
T1 sequence (P32238 whole entry): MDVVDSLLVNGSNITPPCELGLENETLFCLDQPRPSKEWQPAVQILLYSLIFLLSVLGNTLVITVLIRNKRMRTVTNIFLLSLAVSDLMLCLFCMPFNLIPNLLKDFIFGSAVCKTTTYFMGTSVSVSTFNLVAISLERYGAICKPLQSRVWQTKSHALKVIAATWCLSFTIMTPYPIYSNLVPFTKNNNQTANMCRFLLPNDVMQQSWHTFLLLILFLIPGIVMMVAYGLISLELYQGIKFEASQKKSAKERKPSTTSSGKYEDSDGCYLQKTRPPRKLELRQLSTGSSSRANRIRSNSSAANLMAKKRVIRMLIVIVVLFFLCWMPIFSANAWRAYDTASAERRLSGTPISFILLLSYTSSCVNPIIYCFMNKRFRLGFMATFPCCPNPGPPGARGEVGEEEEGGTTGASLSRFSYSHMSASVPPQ

[2] = target: T2, Gastrin/cholecystokinin type B receptor (Homo sapiens, UniProt P32239); experiment: Displacement of [125I]-CCK-8 from human CCK2R expressed in human 1321N1 cell membranes after 2 hrs by SPA assay
T2 sequence (P32239 whole entry): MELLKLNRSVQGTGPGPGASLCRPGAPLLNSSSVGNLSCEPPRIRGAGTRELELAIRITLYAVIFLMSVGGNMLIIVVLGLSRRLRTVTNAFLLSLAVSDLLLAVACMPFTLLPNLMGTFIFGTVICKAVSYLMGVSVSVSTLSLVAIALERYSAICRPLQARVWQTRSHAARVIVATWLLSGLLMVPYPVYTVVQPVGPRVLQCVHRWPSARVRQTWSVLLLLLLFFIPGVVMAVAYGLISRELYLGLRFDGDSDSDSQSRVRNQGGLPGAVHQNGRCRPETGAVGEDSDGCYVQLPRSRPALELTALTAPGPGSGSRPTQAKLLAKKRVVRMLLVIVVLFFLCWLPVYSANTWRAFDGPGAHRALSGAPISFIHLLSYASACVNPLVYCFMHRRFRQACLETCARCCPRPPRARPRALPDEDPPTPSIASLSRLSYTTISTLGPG

[3] = target: T1, Cholecystokinin receptor type A; experiment: Agonist activity at human CCK1R expressed in human 1321N1 cells assessed as IP1 accumulation after 1 hr by HTRF assay; assay type: functional, cell-based
[4] = target: T2, Gastrin/cholecystokinin type B receptor; experiment: Agonist activity at human CCK2R expressed in human 1321N1 cells assessed as IP1 accumulation after 1 hr by HTRF assay; assay type: functional, cell-based

| SMILES | IC50 [1] [nM] | IC50 [2] [nM] | EC50 [3] [nM] | EC50 [4] [nM] | pIC50 [1] | pIC50 [2] | pEC50 [3] | pEC50 [4] |
| --- | --- | --- | --- | --- | --- | --- | --- | --- |
| CCCC[C@H](NC(=O)Cc1ccc(OS(=O)(=O)O)cc1)C(=O)NCC(=O)N[C@@H](Cc1c[nH]c2ccccc12)C(=O)N[C@@H](CCCC)C(=O)N(C)[C@H](CC(=O)O)C(=O)N[C@@H](Cc1ccccc1)C(N)=O ({Phenylacetyl(4-OSO3H)}-[Nle]GW[Nle][dNMeD]F-NH2) | 0.0447 | 7410 | 0.0251 | > 1000 |  |  |  |  |
| CCCC[C@H](NC(=O)[C@H](Cc1c[nH]c2ccccc12)NC(=O)CNC(=O)[C@H](CC(C)C)NC(=O)[C@H](Cc1ccc(OS(=O)(=O)O)cc1)NC(=O)[C@H](CC(=O)O)NC(=O)COCCOCCNC(=O)COCCOCCNC(=O)CC[C@H](NC(=O)CCCCCCCCCCCCCCCCC(=O)O)C(=O)O)C(=O)N(C)[C@H](CC(=O)O)C(=O)N(C)[C@@H](Cc1ccccc1)C(N)=O | 0.0741 |  | 0.363 | 123 |  |  |  |  |
| CCCC[C@H](NC(=O)Cc1ccc(O)cc1)C(=O)NCC(=O)N[C@@H](Cc1c[nH]c2ccccc12)C(=O)N[C@@H](CCCC)C(=O)N(C)[C@@H](CC(=O)O)C(=O)N(C)[C@@H](Cc1ccccc1)C(N)=O (X1-[Nle]GW[Nle][NMeD][NMeF]-NH2) | 42.7 | > 10000 | 8.51 | > 1000 |  |  |  |  |
| CCCC[C@H](NC(=O)[C@H](Cc1ccc(OS(=O)(=O)O)cc1)NC(=O)[C@H](CC(=O)O)NC(=O)COCCOCCNC(=O)COCCOCCNC(=O)CC[C@H](NC(=O)CCCCCCCCCCCCCCCCC(=O)O)C(=O)O)C(=O)NCC(=O)N[C@@H](Cc1c[nH]c2ccccc12)C(=O)N[C@@H](CCCC)C(=O)N[C@@H](CC(=O)O)C(=O)N[C@@H](Cc1cccc2ccccc12)C(N)=O ({C18 diacid-γGlu-AEEA-AEEA}-D[sY][Nle]GW[Nle]D[1Nal]-NH2) | 0.0759 | 0.0933 | 0.162 | 0.407 |  |  |  |  |
| CSCC[C@H](NC(=O)[C@H](Cc1c[nH]c2ccccc12)NC(=O)CNC(=O)[C@H](Cc1ccc(O)cc1)NC(=O)[C@H](C)NC(=O)[C@H](CCC(=O)O)NC(=O)[C@H](CCC(=O)O)NC(=O)[C@H](CCC(=O)O)NC(=O)[C@H](CCC(=O)O)NC(=O)[C@H](CCC(=O)O)NC(=O)[C@H](CC(C)C)NC(=O)[C@H](Cc1c[nH]c2ccccc12)NC(=O)[C@@H]1CCCN1C(=O)CNC(=O)[C@@H]1CCC(=O)N1)C(=O)N[C@@H](CC(=O)O)C(=O)N[C@@H](Cc1ccccc1)C(N)=O | 851 |  | 269 |  |  |  |  |  |
| CCCC[C@H](NC(=O)[C@H](Cc1c[nH]c2ccccc12)NC(=O)CNC(=O)[C@H](CC(C)C)NC(=O)[C@H](Cc1c[nH]c2ccccc12)NC(=O)[C@H](CC(=O)O)NC(=O)COCCOCCNC(=O)COCCOCCNC(=O)CC[C@H](NC(=O)CCCCCCCCCCCCCCCCC(=O)O)C(=O)O)C(=O)N(C)[C@@H](CC(=O)O)C(=O)N(C)[C@@H](Cc1ccccc1)C(N)=O ({C18 diacid-γGlu-AEEA-AEEA}-DWLGW[Nle][NMeD][NMeF]-NH2) |  |  |  |  | 8.57 | 5.13 | 9.67 | < 6 |
| CCCC[C@H](NC(=O)[C@H](Cc1ccc(OS(=O)(=O)O)cc1)NC(=O)[C@H](CC(=O)O)NC(=O)COCCOCCNC(=O)COCCOCCNC(=O)CC[C@H](NC(=O)CCCCCCCCCCCCCCCCC(=O)O)C(=O)O)C(=O)NCC(=O)N[C@@H](Cc1c[nH]c2ccccc12)C(=O)N[C@@H](CCCCNC(=O)Nc1ccccc1C)C(=O)N(C)[C@@H](CC(=O)O)C(=O)N(C)[C@@H](Cc1ccccc1)C(N)=O ({C18 diacid-γGlu-AEEA-AEEA}-D[sY][Nle]GWK([CO-NH(2-Me-phenyl)])[NMeD][NMeF]-NH2) | 0.479 | > 10000 | 0.115 | > 1000 |  |  |  |  |
| CCCC[C@H](NC(=O)[C@H](Cc1c[nH]c2ccccc12)NC(=O)CNC(=O)[C@H](CC(C)C)NC(=O)[C@H](Cc1ccc(CS(=O)(=O)O)cc1)NC(=O)[C@H](CC(=O)O)NC(=O)COCCOCCNC(=O)COCCOCCNC(=O)CC[C@H](NC(=O)CCCCCCCCCCCCCCC(=O)O)C(=O)O)C(=O)N(C)[C@H](CC(=O)O)C(=O)N(C)[C@@H](Cc1ccccc1)C(N)=O ({C16 diacid-γGlu-AEEA-AEEA}-D[Phe(4-CH2SO3H)]LGW[Nle][dNMeD][NMeF]-NH2) |  |  | 0.191 |  |  |  |  |  |
| CC(C)C[C@H](NC(=O)[C@H](Cc1ccc(OS(=O)(=O)O)cc1)NC(=O)[C@H](CC(=O)O)NC(=O)COCCOCCNC(=O)COCCOCCNC(=O)CC[C@H](NC(=O)CCCCCCCCCCCCCCCCC(=O)O)C(=O)O)C(=O)NCC(=O)N[C@@H](Cc1c[nH]c2ccccc12)C(=O)N[C@@H](C)C(=O)N(C)[C@H](CC(=O)O)C(=O)N(C)[C@@H](Cc1ccccc1)C(N)=O ({C18 diacid-γGlu-AEEA-AEEA}-D[sY]LGWA[dNMeD][NMeF]-NH2) | 0.617 |  | 0.166 |  |  |  |  |  |

Next, values leading:

| IC50 [1] [nM] | IC50 [2] [nM] | EC50 [3] [nM] | EC50 [4] [nM] | pIC50 [1] | pIC50 [2] | pEC50 [3] | pEC50 [4] | SMILES |
| --- | --- | --- | --- | --- | --- | --- | --- | --- |
| 19.1 | 309 | 11.7 | 5.75 |  |  |  |  | CCCC[C@H](NC(=O)[C@H](Cc1ccc(OS(=O)(=O)O)cc1)NC(=O)[C@H](CC(=O)O)NC(=O)COCCOCCNC(=O)COCCOCCNC(=O)CC[C@H](NC(=O)CCCCCCCCCCCCCCCCC(=O)O)C(=O)O)C(=O)NCC(=O)N[C@@H](Cc1c[nH]c2ccccc12)C(=O)N[C@@H](CCCC)C(=O)N[C@@H](CC(N)=O)C(=O)N[C@@H](Cc1ccccc1)C(N)=O ({C18 diacid-γGlu-AEEA-AEEA}-D[sY][Nle]GW[Nle]NF-NH2) |
|  | 245 |  | 1.55 |  |  |  |  | CCCC[C@H](NC(=O)[C@H](Cc1c[nH]c2ccccc12)NC(=O)CNC(=O)[C@H](CC(C)C)NC(=O)[C@H](Cc1ccc(OS(=O)(=O)O)cc1)NC(=O)[C@H](CC(=O)O)NC(=O)COCCOCCNC(=O)COCCOCCNC(=O)CC[C@H](NC(=O)CCCCCCCCCCCCCCCCC(=O)O)C(=O)O)C(=O)N(C)[C@@H](CC(=O)O)C(=O)N[C@@H](Cc1ccccc1)C(N)=O |
| 219 | 0.398 | 117 | 0.316 |  |  |  |  | CCCC[C@H](NC(=O)[C@H](Cc1c[nH]c2ccccc12)NC(=O)CCNC(=O)[C@H](CC(C)C)NC(=O)[C@H](Cc1ccc(OS(=O)(=O)O)cc1)NC(=O)[C@H](CC(=O)O)NC(=O)COCCOCCNC(=O)COCCOCCNC(=O)CC[C@H](NC(=O)CCCCCCCCCCCCCCCCC(=O)O)C(=O)O)C(=O)N[C@@H](CC(=O)O)C(=O)N[C@@H](Cc1ccccc1)C(N)=O ({C18 diacid-γGlu-AEEA-AEEA}-D[sY]L[βAla]W[Nle]DF-NH2) |
| 9.12 | 0.132 | 0.977 | 0.324 |  |  |  |  | CCCC[C@H](NC(=O)[C@H](Cc1ccc(OS(=O)(=O)O)cc1)NC(=O)[C@H](CC(=O)O)NC(=O)COCCOCCNC(=O)COCCOCCNC(=O)CC[C@H](NC(=O)CCCCCCCCCCCCCCCCC(=O)O)C(=O)O)C(=O)NCC(=O)N[C@@H](Cc1c[nH]c2ccccc12)C(=O)N[C@@H](CCCC)C(=O)N[C@@H](CC(=O)O)C(=O)N[C@@H](Cc1ccc(O)cc1)C(N)=O ({C18 diacid-γGlu-AEEA-AEEA}-D[sY][Nle]GW[Nle]DY-NH2) |
|  | 5620 |  | 132 |  |  |  |  | CCCC[C@H](NC(=O)[C@H](Cc1c[nH]c2ccccc12)NC(=O)CNC(=O)[C@H](CC(C)C)NC(=O)[C@H](Cc1ccc(OS(=O)(=O)O)cc1)NC(=O)[C@H](CC(=O)O)NC(=O)COCCOCCNC(=O)COCCOCCNC(=O)CC[C@H](NC(=O)CCCCCCCCCCCCCCCCC(=O)O)C(=O)O)C(=O)N(C)[C@H](CC(=O)O)C(=O)N[C@@H](Cc1ccccc1)C(N)=O |
